Here are results for one compound from US20080119548A1, “Control Of Feeding Behavior By Changing Neuronal Energy Balance” (priority 2004, published 2008).

One assay deals with liver AMPKα. The assay is described as follows: Western blot of phosphorylated AMPKα in liver. In kind it is in vivo, mice. Particulars: C75 i.p. Here is the method:
Hypothalami were dissected using as landmarks the optic chiasm rostrally, and the mammillary bodies caudally to a depth of 2 mm. Dissected hypothalamic and liver tissue were immediately frozen in liquid nitrogen. Tissues were homogenized in 200 μl of lysis buffer (50 mM Tris-HCl, pH 7.5, 250 mM sucrose, 5 mM sodium pyrophosphate, 50 mM NaF, 1 mM EDTA, 1 mM EGTA, 1 mM DTT, 0.5 mM PMSF, 0.1 mM benzamidine, 50 μg/ml leupeptin, 50 μg/ml soybean trypsin inhibitor). SDS detergent was added to a final 0.2%, and lysates were boiled for 5 min. After the supernatant was harvested, protein concentration was determined by BCA kit (Bio Rad). Phosphorylation of AMPKα was determined on a 4-15% gradient SDS-polyacrylamide gel using anti-phospho-AMPKα (α1 and α2, Thr172) antibody (1:1000, Cell Signaling). Anti-AMPKαt antibody (α1 and α2, 1:1000, Cell Signaling) was used as a loading control.
A general note: In western blotting, separated proteins are transferred to a membrane and probed.

The next assay has as its system NPY mRNA. The assay is described as follows: In situ hybridization of NPY in the arcuate nucleus. Particulars: C75-treated (24 hr) mice. Format: in vivo. On the procedure:
Anti-sense DIG-labeled NPY riboprobe was generated from a plasmid containing the NPY gene (XM004941). […] For double fluorescent in situ hybridization, DIG-labeled riboprobe was generated from plasmid containing AMPKα2 gene (pEBGα2, a gift from L. A. Witters) for AMPKα2 (FITC) and biotin-labeled riboprobe was used for NPY (Texas Red). Sheep FITC-conjugated anti-DIG antibody (1:50, Roche) was incubated in TNB buffer (100 mM Tris-HCl pH 7.5, 150 mM NaCl, and 0.5% blocking reagent) for FITC detection. Streptavidin-Texas Red (1:50, Amersham Pharmacia), rabbit anti-Texas Red antibody (1:50, Molecular Probes), goat biotin-conjugated anti-rabbit IgG antibody (1:50, Santa Cruz Biotechnology) and streptavidin-Texas Red (1:30) were incubated serially in TNB buffer for Texas Red detection.
Images of in situ hybridization and immunohistochemistry were visualized using an Axiocam HRc digital camera (Carl Zeiss) and images were acquired using Improvision Openlab software, and quantified by NIH Image program (Macro).

The test system of a further assay is pCREB. The assay is described as follows: Immunohistochemistry of pCREB in the arcuate nucleus. In kind it is in vivo, mice. The note with it: C75-treated (24 hr) mice. Here is the method: Free-floating sections were blocked in PBS containing 5% goat serum, 0.1% BSA, 0.05% Triton-X100, 1 mM NaF for 1 hr at room temperature and incubated with anti-phospho-AMPKα (α1 and α2) antibody (1:100) or anti-phospho-CREB antibody (1:500, Cell Signaling) in PBS containing 1% goat serum, 0.1% BSA, 0.05% Triton-X100, 1 mM NaF overnight at 4° C. Signal was visualized by Vectastain ABC kit (Vector). Images of in situ hybridization and immunohistochemistry were visualized using an Axiocam HRc digital camera (Carl Zeiss) and images were acquired using Improvision Openlab software, and quantified by NIH Image program (Macro).

The test system of a further assay is primary cortical neurons. The assay is described as follows: ATP, AMP/ATP ratio and AMPK activity in primary cortical neurons. Format: cell-based, Sprague-Dawley rats. The note with it: C75 treatment. Here is the method: Cortices were removed from E17 Sprague-Dawley rats (Harlan, Indianapolis, Ind.), and were dissociated by mild trypsinization and trituration as described by Dawson, et al. J Neurosci 13, 2651-2661 (1993). Cells were plated on poly-D-lysine coated plastic Nunclon culture dishes at a density of 5×10^5 cells/cm^2 in Minimum Essential Media (MEM) supplemented with horse serum, fetal bovine serum, glutamine, and the antibiotics gentamycin and kanamycin. […]
Neurons were lysed on ice using TE buffer (100 mM Tris and 4 mM EDTA) and removed from the plate. ATP levels were then measured in the linear range using the ATP Bioluminescence Kit CLS II (Roche, Indianapolis, Ind.) by following the manufacturer's protocol, and results were read by a Perkin-Elmer Victor^2 1420.
Adenine nucleotide levels in primary cortical neuron lysates were determined by HPLC analysis as described by Stocchi, et al. Anal Biochem 167, 181-190 (1987). […]
AMPK activity was determined by performing SAMS peptide assays as described by Witters, et al., J Biol Chem 267, 2864-2867 (1992). […] Immunoprecipitates were then washed and resuspended in 4× assay buffer and kinase activity was assessed by measurement (for 20 min at 30° C.) of the incorporation of ^32P into the synthetic SAMS peptide substrate, HMRSAMSGLHLVKRR, (Princeton Biomolecules). […]

In the case of `C=C1C(=O)OC(CCCCCCCC)C1C(=O)O` (stereo not drawn) [C75], the “pAMPKα levels in the liver” value in the assay with liver AMPKα (30 min after administration) is “little effect”. Further, the “pAMPKα levels in the liver” value with liver AMPKα (3 hr) is given as “increased pAMPKα levels”. In the assay on NPY mRNA, the “NPY mRNA expression in the arcuate nucleus, % of control” value was 66 % of control. In addition, the “level of pCREB in the arcuate nucleus, % of control” value in the assay on pCREB is 39 % of control. For the same compound, in the assay on primary cortical neurons, the “AMPK activity in primary cortical neurons” value was “inactivation of AMPK” and the “ratio of AMP/ATP in primary cortical neurons” value is recorded as “decrease in the ratio of AMP/ATP”.
